From patent publication US20220340665A1, “INHIBITOR AGAINST EXPRESSION OF IMMUNE CHECKPOINT MOLECULE” (RENASCIENCE INC., priority 2019, published 2022)
Entries after “also recorded” stand apart in the source; their conditions may differ.

How the values were obtained:
[1] = tested on: mouse malignant melanoma cell line (B16F10); assay: PD-L1 expression level by flow cytometry in B16F10 cells (Experimental Example 3); type: cell-based; conditions: inhibitor 50 μM with rPAI-1 40 nM, 2 days, listed as PAI-1 inhibitor
Method: Next, the PD-L1 expression level was determined by flow cytometry in the same manner as in Experimental Example 1.
Likewise, a mouse colorectal cancer cell line (MC38) and a mouse malignant melanoma cell line (B16F10) were also tested in the same manner, instead of the mouse leukemia cell line (32Dp210).

[2] = tested on: mouse colorectal cancer cell line (MC38); assay: MC38 tumor mass in immunodeficient and wild-type mice (Experimental Example 12); type: in vivo; conditions: 10 mg/kg orally once daily, 14 days, listed as PAI-1 inhibitor
Method: To confirm this point, the following experiment was performed. Specifically, 5×10^5 cells of a mouse colorectal cancer cell line (MC38) were subcutaneously transplanted into immunodeficient mice (Rag2/IL-2R-KO) and wild-type mice (WT, for control). The immunodeficient mice lacked the RAG2 gene and the IL-2 receptor γ chain gene, and immune cells (T cells, B cells, NK cells) were not congenitally present in the body. One week later, engraftment of more than 5 mm of a tumor mass in the major axis was confirmed. Subsequently, the PAI-1 inhibitor (10 mg/kg) or physiological saline (vehicle) was orally administered to each mouse once daily for a total of 14 consecutive days.

[3] = tested on: M2 macrophages; assay: Macrophages and M2 macrophages in MC38 tumor mass by flow cytometry (Experimental Example 13); type: in vivo, mice (C57BL6); conditions: oral administration for one week, vs vehicle
Method: 1) The untreated group and 3) the single-administration group of PAI-1 inhibitor (cancer-bearing mice) of Experimental Example 11, after tumor engraftment, were orally administered with physiological saline (vehicle) or the PAI-1 inhibitor for one week. Thereafter, the tumors were collected, and the M2 macrophages were stained with an anti-CD45 antibody, an anti-CD11b antibody, an anti-F4/80 antibody, and an anti-CD206 antibody, and the percentage of M2 macrophages in the tumor mass was analyzed with a flow cytometer.

O=C(Nc1ccc(Cl)cc1C(=O)[O-])c1cccc(-c2cccc3cccnc23)c1.[Na+] [Example 68, 5-chloro-2-(((3-(quinolin-8-yl)phenyl)carbonyl)amino)sodium benzoate]
PD-L1 expression induction by rPAI-1 [1]: completely inhibited the induction; also recorded: the same results as those of the leukemia cells | tumor regression effect ([2]; immunodeficient mice (Rag2/IL-2R-KO)): no such an effect was observed; also recorded: not observed | tumor regression effect ([2]; wild-type mice (WT), 10 mg/kg): achieved a tumor regression effect; also recorded: observed | number of macrophages in the tumor [3]: reduced | percentage of M2 macrophages among macrophages [3]: reduced
